From US20100240612A1, “Prenylated Bisphosphonates as Anti-tuberculosis Agents” (priority 2009, published 2010)

Key:
[1] = molecular target: T1, mycobacterial polyprenyl synthase (RV2361c) (Mycobacterium tuberculosis, UniProt P9WFF7); test: Test A: Inhibition of Mycobacterial Polyprenyl Synthase (RV2361c); format: biochemical; settings: result in words, data only in FIG. 1/FIG. 2
T1 sequence (P9WFF7 1-296): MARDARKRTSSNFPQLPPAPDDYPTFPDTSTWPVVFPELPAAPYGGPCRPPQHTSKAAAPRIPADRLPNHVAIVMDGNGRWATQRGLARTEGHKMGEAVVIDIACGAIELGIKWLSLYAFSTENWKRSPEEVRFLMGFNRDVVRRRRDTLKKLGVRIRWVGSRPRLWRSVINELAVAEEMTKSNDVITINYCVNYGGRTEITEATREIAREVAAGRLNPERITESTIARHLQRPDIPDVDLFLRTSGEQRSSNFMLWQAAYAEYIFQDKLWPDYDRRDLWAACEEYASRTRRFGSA

[2] = system: Mycobacterium Smegmatis (ATCC 607); test: Test B: Inhibition of Growth of the Bacterium M. Smegmatis; format: cell-based; settings: grown in the presence of drug for 2 days, absorbance at 540 nm or CFU; result in words, data only in FIG. 3, versus Isoniazid
Method: Mycobacterium Smegmatis (ATCC 607) was obtained from American Type Culture Collection and cultured in 7H9 broth (Sigma) containing ADC (Sigma), 0.5% glycerol, and 0.05% Tween-80. Bacteria were grown to log phase and then diluted, aliquoted, and grown in the presence of indicated drugs for 2 days. Growth was measured as a function of optical absorbance at 540 nm using a spectrophotometer. Alternatively, aliquots of liquid cultures were spread onto agar containing plates, which were then grown for 2 days, after which the number of colony forming units (CFU) were counted and normalized per mL.

| SMILES | inhibition of purified mycobacterial polyprenyl synthase (RV2361c) [1] | inhibition of growth of the bacterium M. Smegmatis [2] |
| --- | --- | --- |
| CC(C)=CCc1ccc(CC(P(=O)([O-])[O-])P(=O)([O-])[O-])cc1.[Na+].[Na+].[Na+].[Na+] [compound 13, p-Prenyl-phenethylidene bisphosphonic acid tetra sodium salt] | inhibition |  |
| COC(=O)c1ccccc1NC/C(C)=C/CC/C(C)=C/CC(P(=O)(OCOC(=O)C(C)(C)C)OCOC(=O)C(C)(C)C)P(=O)(OCOC(=O)C(C)(C)C)OCOC(=O)C(C)(C)C [compound 24] |  | inhibition of growth |
